According to US20230118497A1, “PYRAZOLE-CONTAINING POLYCYCLIC DERIVATIVE INHIBITOR, PREPARATION METHOD THEREFOR AND APPLICATION THEREOF” (Shanghai Hansoh Biomedical Co., Ltd., priority 2019, published 2023):

Experiments:
[1] = biological target: T1, CYP450 enzyme isoform 2C19 (Homo sapiens, UniProt P33261); assay: CYP enzyme single-point inhibition assay, 2C19; assay type: in vitro ADME; details: human liver microsome, single-point method
T1 construct: single-point method using human liver microsome incubation system; from tissue; host or cells: human liver microsomes
Method: (§1) Test Example 7. CYP Enzyme Single-Point Inhibition Assay
(§2) The inhibition of the compounds on CYP450 enzyme isoformwas rapidly predicted by single-point method using human liver microsome incubation system.
(§3) 2.5 mM NADPH: 4.165 mg of NADPH (reduced nicotinamide adenine dinucleotide phosphate) was weighed, followed by addition of 100 mM phosphate buffer to 2 mL. 0.25 mg/mL microsome solution: 4 mL of 100 mM phosphate buffer was added to 50 μL of 20 mg/mL microsome solution and mixed well.
(§4) The test compound of the Example was weighed, diluted to 10 mM with DMSO and then to 100 μM with 100 mM phosphate buffer.
(§5) 1. 40 μL of liver microsome, 10 μL of substrate and 10 μL of the test compound were added to a 96-well plate and pre-incubated for 3 min.
(§6) 2. 40 μL of NADPH was added.
(§7) 3. 300 μL of acetonitrile stop solution containing internal standard was added at 20 min.
(§8) 4. The sample was centrifuged and injected.

[2] = Metabolic stability in liver microsome (rat); assay type: in vitro ADME; details: rat liver microsome 0.5 mg/mL, compound 1 μM; for half-life at 1 μM: liver microsomes
Method: Test Example 5. Assay of Metabolic Stability in Liver Microsome
The objective of the experiment is to determine the stability of the compounds of the Examples in liver microsome of mouse, rat, dog and human.
Formulation of the working solution of the compound: The stock solution of the compound was added to phosphate buffer, and the final concentration was 20 μM.
Liver microsome was diluted with 100 mM phosphate buffer to obtain a final concentration of 0.625 mg/mL.
NADPH (reduced nicotinamide adenine dinucleotide phosphate) and UDPGA (uridine diphosphate glucuronic acid) were weighed respectively, followed by addition of 100 mM phosphate buffer. The final concentrations were 20 mM.
1 mg of Alamethicin was weighed, to which 200 μL of DMSO was added to obtain a 5 mg/mL solution. The solution was diluted with phosphate buffer to obtain a final concentration of 50 μg/mL.
2.5 Formulation of the reaction stop solution Stop solution: Cold acetonitrile containing 100 ng/mL labetalol hydrochloride and 400 ng/mL tolbutamide as internal standards.
400 μL of the prepared liver microsome, 25 μL of the working solution of the compound and 25 μL of Alamethicin were added to a 96-well plate successively, which was then pre-incubated at 37° C. for 10 min. 50 μL of the prepared NADPH/UDPGA was added to initiate the reaction, and the plate was incubated at 37° C. The total volume of the reaction system was 500 μL. The final contents of the components were as follows: […]

[3] = biological target: T2, CYP450 enzyme isoform 2D6 (Homo sapiens, UniProt P10635); assay: CYP enzyme single-point inhibition assay, 2D6; assay type: in vitro ADME; details: human liver microsome, single-point method
T2 construct: single-point method using human liver microsome incubation system; from tissue; host or cells: human liver microsomes
Method: as §1, §2, §3, §4, §5, §6, §7, §8

[4] = biological target: T3, 1321N1-hP2X3 receptor (Homo sapiens, UniProt P56373); assay: Calcium ion mobility (FLIPR) in cells stably expressing 1321N1-hP2X3 receptors; assay type: cell-based; details: calcium signal, agonist at EC80
T3 construct: host or cells: 1321N1
T3 sequence (P56373 1-397): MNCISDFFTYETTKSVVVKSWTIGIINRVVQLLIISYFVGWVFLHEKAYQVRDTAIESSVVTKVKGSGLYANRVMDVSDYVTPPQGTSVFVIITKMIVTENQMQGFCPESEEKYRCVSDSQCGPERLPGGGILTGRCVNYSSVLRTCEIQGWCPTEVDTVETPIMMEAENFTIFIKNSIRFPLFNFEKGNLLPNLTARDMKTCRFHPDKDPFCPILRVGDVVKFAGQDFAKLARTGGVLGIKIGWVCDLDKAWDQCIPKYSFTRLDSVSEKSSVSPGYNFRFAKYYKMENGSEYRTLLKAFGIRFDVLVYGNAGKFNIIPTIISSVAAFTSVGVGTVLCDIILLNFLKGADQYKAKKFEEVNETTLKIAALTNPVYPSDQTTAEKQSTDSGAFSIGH
Method: Test Example 1. Determination of the Effect of the Compounds of the Present Invention on Calcium Ion Mobility in Cells Stably Expressing 1321N1-hP2X3 Receptors
To determine the inhibitory activity of the compounds on 1321N1-hP2X3 receptor.
Stably transfected cell line: 1321N1-hP2X3 (supplied by Shanghai ChemPartner Chemical Research Co., Ltd.).
Assay buffer: 1*HBSS+20 mM HEPES;
Cell culture medium: DMEM+10% FBS+75 µg/mL Hygromycin B+300 µg/mL G418;
Plating medium: DMEM+10% DPBS;
0.5*Dye: 10*Dye stock+1.25 Probenecid+1*assay buffer+0.5 U/mL ATP hydrolytic enzyme;
2. The cells were cultured to 70%-90% confluency in the cell culture medium at 37° C., 5% CO2. The medium was discarded, and the cells were added with 2 mL of Versene, and the cells were placed in an incubator at 37° C. for 2 to 5 min. The cells were collected by addition of 10 mL of plating medium and counted. The cells were seeded to the 384-well assay plate by addition of 50 μL solution (a density of 1×10^4 cells/well) to each well, and incubated for 16 to 24 hours (at least overnight).
3. The medium was discarded, and 30 μL of 1× dye was added. The cells were incubated at 37° C. in the dark for 60 min.
4. The compound powder was dissolved in DMSO to obtain a 20 mM stock solution. 180× compound with required concentration was formulated, and diluted in gradient for concentration points.
5. Preparation of compound plate: 500 nL of 180× compound was transferred to the compound plate (source plate for FLIPR) using ECHO. 30 μL of assay buffer was added to each well, and the plate was shaken gently for 20 to 40 minutes.
6. Determination: 15 μL of 3× compound was taken from each well and added to the cell plate. The samples were added by FLIPR instrument, and the calcium signals were detected. After 15 minutes, 22.5 μL of 3× agonist (EC80 concentration) was added to each well and the calcium signals were detected.
The calcium signal values were determined by FLIPR. The ratio of the 340/510 nm wavelength signals to 380/510 nm wavelength signals was used as the calculated results for each sampling time point in the experiment. The calculation of maximum minus minimum was derived from the ratio signal curve.
The percent inhibition rate and ten-point concentration data were fitted to the parametric nonlinear logistic equation by using GraphPad prism to calculate the IC50 values of the compounds.

[5] = biological target: T4, CYP450 enzyme isoform 2C9 (Homo sapiens, UniProt P11712); assay: CYP enzyme single-point inhibition assay, 2C9; assay type: in vitro ADME; details: human liver microsome, single-point method
T4 construct: single-point method using human liver microsome incubation system; from tissue; host or cells: human liver microsomes
Method: as §1, §2, §3, §4, §5, §6, §7, §8

T1 sequence (P33261 whole entry, canonical isoform): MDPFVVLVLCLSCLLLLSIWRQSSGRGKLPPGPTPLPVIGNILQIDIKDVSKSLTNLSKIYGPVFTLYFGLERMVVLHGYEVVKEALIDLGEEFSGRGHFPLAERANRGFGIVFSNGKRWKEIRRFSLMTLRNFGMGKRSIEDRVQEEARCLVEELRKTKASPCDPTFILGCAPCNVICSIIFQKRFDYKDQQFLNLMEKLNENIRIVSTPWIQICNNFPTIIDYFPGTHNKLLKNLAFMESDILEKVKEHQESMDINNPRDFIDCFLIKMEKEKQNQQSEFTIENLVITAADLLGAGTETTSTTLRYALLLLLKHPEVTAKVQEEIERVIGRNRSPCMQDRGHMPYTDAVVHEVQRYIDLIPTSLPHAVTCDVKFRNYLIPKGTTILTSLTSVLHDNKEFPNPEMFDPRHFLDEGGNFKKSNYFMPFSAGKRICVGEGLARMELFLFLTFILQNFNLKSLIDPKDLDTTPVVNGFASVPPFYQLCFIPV
T2 sequence (P10635 whole entry, canonical isoform): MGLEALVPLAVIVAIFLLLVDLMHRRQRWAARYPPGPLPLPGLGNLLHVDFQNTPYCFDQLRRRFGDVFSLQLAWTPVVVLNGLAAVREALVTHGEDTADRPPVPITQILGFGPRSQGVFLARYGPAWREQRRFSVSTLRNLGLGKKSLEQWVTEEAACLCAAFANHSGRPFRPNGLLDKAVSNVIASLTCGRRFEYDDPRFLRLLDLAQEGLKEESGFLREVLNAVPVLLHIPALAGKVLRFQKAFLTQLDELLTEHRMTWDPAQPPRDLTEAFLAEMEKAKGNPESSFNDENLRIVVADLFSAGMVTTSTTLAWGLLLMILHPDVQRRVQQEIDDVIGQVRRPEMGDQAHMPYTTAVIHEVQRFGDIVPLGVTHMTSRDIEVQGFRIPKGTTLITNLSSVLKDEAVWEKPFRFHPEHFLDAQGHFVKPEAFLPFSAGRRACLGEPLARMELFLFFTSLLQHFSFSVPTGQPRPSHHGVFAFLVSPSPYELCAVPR
T4 sequence (P11712 whole entry, canonical isoform): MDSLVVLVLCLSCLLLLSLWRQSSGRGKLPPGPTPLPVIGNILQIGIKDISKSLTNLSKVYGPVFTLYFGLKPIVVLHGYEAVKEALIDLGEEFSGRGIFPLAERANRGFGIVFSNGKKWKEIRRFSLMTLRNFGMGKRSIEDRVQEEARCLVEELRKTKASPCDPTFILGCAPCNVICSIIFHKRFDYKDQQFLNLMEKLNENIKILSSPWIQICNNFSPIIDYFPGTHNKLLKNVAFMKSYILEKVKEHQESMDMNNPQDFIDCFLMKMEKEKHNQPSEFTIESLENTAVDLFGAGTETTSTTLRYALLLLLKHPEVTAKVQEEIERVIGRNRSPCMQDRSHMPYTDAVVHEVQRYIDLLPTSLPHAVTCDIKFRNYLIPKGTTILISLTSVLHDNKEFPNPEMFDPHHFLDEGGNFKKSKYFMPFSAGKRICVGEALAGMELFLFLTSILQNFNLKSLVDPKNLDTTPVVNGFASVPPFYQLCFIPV

With `O=C(Cn1c(=O)c2ccc(C(F)(F)F)nc2n2nccc12)Nc1ccc(F)cn1` [Example 78, N-(5-Fluoropyridin-2-yl)-2-(5-oxo-8-(trifluoromethyl)pyrazolo[1,5-a]pyrido[3,2-e]pyrimidin-4(5H)-yl)acetamide] the IC50 [1] was > 100 µM, the half-life at 1 μM ([2]; NADPH/UDPGA) was 32.7 h and the “Remaining (%, 60 min)” value [2] was 98.9%. For the same molecule, the IC50 [3] was > 100 µM, the IC50 [4] was 0.049 µM and the IC50 [5] was > 100 µM.
With `O=C(Cn1c(=O)c2ccc(C(F)(F)F)nc2n2nc(Br)cc12)Nc1ccc(F)cn1` [Example 61-A, 2-(2-bromo-5-oxo-8-(trifluoromethyl)pyrazolo[1,5-a]pyrido[3,2-e]pyrimidin-4(5H)-yl)-N-(5-fluoropyridin-2-yl)acetamide] the IC50 [1] was > 100 µM, the half-life at 1 μM ([2]; NADPH/UDPGA) was 15.7 h and the “Remaining (%, 60 min)” value [2] was 102.3%. The IC50 [3] was > 100 µM, the IC50 [4] was 0.0764 µM and the IC50 [5] was > 100 µM.
For `CCc1cc2n(CC(=O)Nc3ccc(F)cn3)c(=O)c3ccc(C(F)(F)F)nc3n2n1` [Example 34, 2-(2-Ethyl-5-oxo-8-(trifluoromethyl)pyrazolo[1,5-a]pyrido[3,2-e]pyrimidin-4(5H)-yl)-N-(5-fluoropyridin-2-yl)acetamide], the IC50 [1] was > 100 µM, the half-life at 1 μM ([2]; NADPH/UDPGA) was 28.9 h and the “Remaining (%, 60 min)” value [2] was 104.4%. The IC50 [3] was > 100 µM, the IC50 [4] was 0.0634 µM and the IC50 [5] was > 100 µM.
Work on `N#Cc1cnn2c3nc(C(F)(F)F)ccc3c(=O)n(CC(=O)Nc3ccc(F)cn3)c12` [Example 80, 2-(3-Cyano-5-oxo-8-(trifluoromethyl)pyrazolo[1,5-a]pyrido[3,2-e]pyrimidin-4(5H)-yl)-N-(5-fluoropyridin-2-yl)acetamide] yielded an IC50 [4] of 0.0643 µM.
In the case of `N#Cc1cc2n(CC(=O)Nc3ccc(F)cn3)c(=O)c3ccc(C(F)(F)F)nc3n2n1` [Example 68, 2-(2-Cyano-5-oxo-8-(trifluoromethyl)pyrazolo[1,5-a]pyrido[3,2-e]pyrimidin-4(5H)-yl)-N-(5-fluoropyridin-2-yl)acetamide], the IC50 [1] is reported as > 100 µM, the “Remaining (%, 60 min)” value [2] is reported as 106.4% and the t1/2 ([2]; NADPH/UDPGA) is reported as “∞”. For the same molecule, the IC50 [3] was > 100 µM, the IC50 [4] was 0.0325 µM and the IC50 [5] was > 100 µM.
